Laboratory results from US5608095A, “Alkyl-4-silyl-phenols and esters thereof as antiatherosclerotic agents” (Hoechst Marion Roussel, Inc., priority 1996, dated 1997).
Read-outs that look alike come from different tables or passages of the source.

Key:
[1] = HPLC quantitation of compound and metabolite concentration in rat serum and liver; assay type: in vivo, male Sprague-Dawley rats; details: po, diet 0.3%, 4 days
Excerpt: (§1) A typical experiment consisted of 4-6 groups of rats (N=5 per group) with 1 group being a control which received no MDL compound and the other groups being treated with 0.3% MDL compound. Some of the compounds were either repeated at 0.3% or evaluated again at the lower dose of 0.1%. Male Sprague-Dawley rats, 50-100 g, (Harlan Laboratories, Indianapolis, Ind.) were housed in groups of 5, fed ad libitum water and Purina Rodent chow (#5002) with or without MDL compound as a dietary admixture for 4 days. Dietary admixtures (0.3%) were made by mixing 1.2 grams of an MDL compound with 400 grams of Purina rodent chow (#5002). The MDL compound was mixed with approximately 50 grams of food using a mortar and pestle. This was added to the remainder of the food and mixed for 3 hours on a rotary mixer. In the morning of day 5, non-fasted rats were anesthetized with carbon dioxide, and blood was collected by cardiac puncture. Rats were sacrificed by cervical dislocation. Body weights and liver weights were recorded in grams. Food consumption was recorded as grams.cndot.day^-1.cndot.rat^-1. Deaths were recorded as mortality. Aliquots of fresh serum were used for clinical chemistries, thiobarbituric acid reactive substances (TBARS) and conjugated diene measurements. Aliquots of serum (~0.5mL) and whole livers were frozen at -20° C. for compound and metabolite concentration determination at a later time.
(§2) Serum and liver concentrations of parent compound and the metabolites, bisphenol and diphenoquinone, were determined by reverse phase HPLC using a Waters 990 Powerline system. Livers (1 gram samples) were homogenized with 5.0 mL PBS, pH 7.4, using a Polytron tissue homogenizer at setting 5 for 20-30 seconds. Serum or liver homogenates were extracted as follows: 100μL of either serum or homogenate were added to 2.0 mL diethyl ether:ethanol (3:1) while vortexing the tube. The sample tubes were capped and centrifuged for 10 min at 5° C. at 3500 rpm in a Beckman GPKR centrifuge with a GH 3.7 rotor. The supernatants were transferred to clean tubes and dried under N2. Samples were reconstituted with 200 μL of acetonitrile:hexane:0.1M ammonium acetate (90:6.5:3.5, by vol.). Then, 100 μL were injected onto a Waters Deltapak C18-300 Å column, and eluted with an 83% acetonitrile:17% water mobile phase at a flow rate of 1.5 mL/min. Absorbances at the wavelengths of 240, 254, and 420 nm were recorded. Compound concentrations were calculated from known quantities of authentic parent compounds after correction for recovery; the range of recovery from spiked samples was 40 to 100%. The lowest detectable limit for this class of compounds was ~0.5 μg/mL. Concentrations were calculated as μg/mL. Concentrations were calculated as μg/mL of serum and μg/g of liver.

[2] = tested on: oxidation of serum lipids; assay: TBARS assay, rat serum; assay type: in vivo, male Sprague-Dawley rats; details: po, 96 h, read-out: TBARS, percent of control
Excerpt: as §1
In this assay the oxidation of serum lipids is initiated with CuSO4, resulting in the formation of aldehydes, such as malondialdehyde (MDA). Upon incubation with thiobarbituric acid, the absorbance of the aldehydes can be detected at 530-540 nm. As stated in the previous example, TBARS values which are lower than control serum values indicate the relative ability of a test compound to inhibit the oxidation of lipids in a sample. TBARS were measured as follows: 100 μL of serum were mixed with 400 μL of a 5 mmol CuSO4 solution and incubated at 37° C. for 3 hr. The reactions were stopped by addition of 1.0 mL of 20% trichloroacetic acid. Then 1.0 mL of 0.67% thiobarbituric acid in 0.05N sodium hydroxide was added, mixed, and the samples incubated for 30 min at 90° C. Samples were centrifuged briefly to pellet undissolved material, and the supernatants were transferred to a 96-well microtiter plate. Absorbances were measured at 540 nm using a Biotek model EL311 microplate reader. The nmoles of MDA produced were calculated from a standard curve of 0 to 10 nmoles of MDA prepared from malonaldehyde bis(dimethylacetal). Serum samples from treated rats were compared to serum samples from control rats that received no MDL compound.

[3] = Clinical chemistries in serum of rats; assay type: in vivo, male Sprague-Dawley rats; details: for response vs control in vivo at 0.3 %: po, 96 h
Excerpt: as §1
Blood was allowed to clot at room temperature for 30 minutes. Serum was obtained after centrifugation for 10 min at 4° C. at 3000 rpm in a Beckman J-6M/E centrifuge with a JS-4.2 rotor. Fresh serum was analyzed by a COBAS MIRA S autoanalyzer (Roche Diagnostics) using Roche diagnostic reagents for the following clinical chemistry measurements: alkaline phosphatase (ALP, kit #44553), alanine transaminase (ALT, kit #42375), aspartate aminotransferase (AST, kit #42381), total cholesterol (CHOL, kit #44334), triglyceride (TG, kit #44120), and glucose (GLU, kit #44558). ALP, ALT, and AST were calculated as units/L. Cholesterol, triglycerides, and glucose were calculated as mg/dL.

[4] = Animal parameters (food, body weight, liver weight, mortality) in rats; assay type: in vivo, male Sprague-Dawley rats; details: diet 0.3%, 4 days; for mortality at 96 h: in vivo, po, read-out: mortality (deaths per group); for mortality at 96 h / body wt., percent of control / lw/bw (liver weight/body weight), percent of control: rat
Excerpt: as §1

[5] = tested on: oxidation of serum lipids; assay: TBARS assay, serum of cholesterol-fed rabbits; assay type: in vivo, female New Zealand White rabbits; details: Oryctolagus cuniculus, po, 168 h; rabbit serum, diet 0.4%, 7 days; read-out: TBARS, percent of control
Method: (§3) Five independent experiments were performed in the following manner. […] Female New Zealand White rabbits (Hazelton, ~2.0-2.3 kg) were fed 0.2% cholesterol enriched rabbit chow (Purina #5322) with or without 0.4% MDL compound (except, MDL 108,804 at 0.26% and MDL 103,491 repeated at 0.6%). The MDL compounds were solubilized in 100% ethanol. MDL 108,208 was not soluble in 100% ethanol, but it was soluble in diethyl ether:ethanol (3:2 by volume). The chow was sprayed with the MDL mixtures and allowed to dry overnight in a chemical fume hood. Control chow was sprayed with ethanol. Rabbits were fed 100 grams food per day for 7 days (0.6% MDL 103,491 were fed for 14 days); water was available ad libitum. On day 7, rabbits (fasted overnight) were bled (~2 mL) from marginal ear vein; 0.6% MDL 103,491 treated rabbits were tested on day 14. They were euthanized by carbon dioxide overdose. The total body and liver weights were recorded in grams. Food consumption was recorded as grams.cndot.day^-1 .cndot.rabbit^-1. Aliquots of fresh serum were used for clinical chemistries, lipoprotein cholesterol determination, thiobarbituric acid reactive substances (TBARS) and compound and metabolite concentrations in serum. Livers (~5 gram aliquots) were frozen at -20° C. for compound and metabolite concentration determination at a later time.
TBARS are a qualitative indication of the oxidation of lipids in a sample. In this assay the oxidation of serum lipids is initiated with CuSO4, resulting in the formation of aldehydes, such as malondialdehyde (MDA). Upon incubation with thiobarbituric acid, the absorbance of the aldehydes can be detected at 530-540 nm. TBARS values which are lower than control serum values indicate the relative ability of a compound to inhibit the oxidation. TBARS were measured as follows: 50 μL of serum were mixed with 50 μL of 0.9% saline and 400 μL of a 5 mM CuSO4 solution and incubated at 37° C. for 5 hr. The reactions were stopped by addition of 1.0 mL of 20% trichloroacetic acid. Then 1.0 mL of 0.67% thiobarbituric acid in 0.05N sodium hydroxide was added, mixed, and the samples incubated for 30 min at 90° C. Samples were centrifuged briefly to pellet undissolved material, and the supernatants were transferred to a 96-well microtiter plate. Absorbances were measured at 540 nm using a Biotek model EL311 microplate reader. The nmoles of MDA produced were calculated from a standard curve of 0 to 10 nmoles of MDA prepared from malonaldehyde bis(dimethylacetal). Serum samples from treated rabbits were compared to serum samples from control rabbits that received no MDL compound.

[6] = tested on: serum cholesterol, LDL, HDL, triglycerides; assay: Serum lipids and lipoprotein cholesterol in cholesterol-fed female New Zealand White rabbits; assay type: in vivo; details: Oryctolagus cuniculus, po, 168 h, rabbit serum, diet 0.4%, 7 days
Method: as §3
Blood was allowed to clot at room temperature for 30 minutes. Serum was obtained after centrifugation for 10 min at 5° C. at 3000 rpm in a Beckman GPKR centrifuge with a GH rotor. Fresh serum was analyzed by a COBAS MIRA autoanalyzer (Roche Diagnostics) using Roche diagnostic reagents for total cholesterol (CHOL, kit #44334) and triglyceride (TG, kit #44120). Cholesterol and triglycerides were calculated as mg/dL.
Lipoprotein fractions (very low density lipoprotein, VLDL, low density lipoprotein, LDL and high density lipoprotein, HDL) were separated on a Sepharose 6HR column (1×30 cm, Pharmacia) attached to a Waters Powerline HPLC system. Fifty μL of serum were injected onto the column and eluted with phosphate buffered saline, pH 7.4, at a flow rate of 0.5 mL/min. Cholesterol reagent (Roche Diagnostics, kit #44334, diluted with 20 mL water and then with 20 mL of 0.9% saline) was added at 0.2 mL/min to the post column eluant and incubated in a knitted PFTE Kratos reaction coil (Applied Biosystems) at 37° C. for 5 min. Absorbance was measured at 500 nm. The lipoprotein subfractions were quantitated as follows: [formula]

[7] = HPLC quantitation of compound and metabolite concentration in rabbit serum and liver; assay type: in vivo, female New Zealand White rabbits; details: diet 0.4%, 7 days
Method: as §3
as §2, with “of parent compounds and the” for “of parent compound and the”, “Livers (1 gram) were homogenized” for “Livers (1 gram samples) were homogenized”, “as follows: 100 μL of either” for “as follows: 100μL of either”, “1.5 mL/min. Absrobances at the” for “1.5 mL/min. Absorbances at the”, “calculated as μg/mL of” for “calculated as μg/mL. Concentrations were calculated as μg/mL of”

[8] = Food consumption, body and liver weight in cholesterol-fed rabbits; assay type: in vivo, female New Zealand White rabbits; details: diet 0.4%, 7 days
Method: as §3

[9] = rat liver, read-out: Liver Parent = parent compound concentration
[10] = rat serum, read-out: Serum Parent = parent compound concentration
[11] = Rattus norvegicus, read-out: CHOL (total cholesterol), percent of control

**Q.** With `CC(C)(C)c1cc(SC[Si](C)(C)c2ccccc2)ccc1O` [MDL 104,571, 2-t-Butyl-4-[(dimethylphenylsilyl)methylthio]phenol] as the compound, how does the concentration at 96 h [1, 9] read?
**A.** 500 ng/g

**Q.** And the concentration at 96 h [1, 10]?
**A.** 1200 ng/mL

**Q.** And the response vs control in vivo at 0.3 % ([2]; rat serum, diet 0.3%, 4 days)?
**A.** 58%

**Q.** What about the response vs control in vivo at 0.3 % [3, 11] of the same compound?
**A.** 108%

**Q.** And the response vs control in vivo at 0.3 % ([3]; rat serum, diet 0.3%, 4 days, read-out: TRIG (triglycerides), percent of control)?
**A.** 119%

**Q.** And the “ALP (alkaline phosphatase), percent of control” value ([3]; rat serum, diet 0.3%, 4 days)?
**A.** 103%

**Q.** And the “ALT (alanine aminotransferase), percent of control” value ([3]; rat serum, diet 0.3%, 4 days)?
**A.** 109%

**Q.** And the “AST (aspartate aminotransferase), percent of control” value ([3]; rat serum, diet 0.3%, 4 days)?
**A.** 103%

**Q.** What about the “GLUC (glucose), percent of control” value ([3]; rat serum, diet 0.3%, 4 days) of the same compound?
**A.** 96%

**Q.** And the “food (grams eaten per day per rat), percent of control” value [4]?
**A.** 108%

**Q.** And the mortality at 96 h [4]?
**A.** 0%

**Q.** What about the “body wt., percent of control” value [4] of the same compound?
**A.** 97%

**Q.** What about the “lw/bw (liver weight/body weight), percent of control” value [4] of the same compound?
**A.** 123%

**Q.** What does the source list for `CC(C)(C)c1cc(OC[Si](C)(C)c2cccc(C(F)(F)F)c2)cc(C(C)(C)C)c1O` [MDL 105,726, 2,6-Di-t-butyl-4-[(dimethyl-3-trifluoromethylphenylsilyl)methyloxy]phenol]?
**A.** concentration at 96 h [1, 9]: 128000 ng/g; concentration at 96 h [1, 10]: 17000 ng/mL; response vs control in vivo at 0.3 % ([2]; Rattus norvegicus): 48%; response vs control in vivo at 0.3 % [3, 11]: 104%; response vs control in vivo at 0.3 % ([3]; Rattus norvegicus, read-out: TRIG (triglycerides), percent of control): 75%; ALP (alkaline phosphatase), percent of control ([3]; rat serum, diet 0.3%, 4 days): 118%; ALT (alanine aminotransferase), percent of control ([3]; rat serum, diet 0.3%, 4 days): 113%; AST (aspartate aminotransferase), percent of control ([3]; rat serum, diet 0.3%, 4 days): 112%; GLUC (glucose), percent of control ([3]; rat serum, diet 0.3%, 4 days): 105%; food (grams eaten per day per rat), percent of control [4]: 112%; mortality at 96 h [4]: 0%; body wt., percent of control [4]: 105%; lw/bw (liver weight/body weight), percent of control [4]: 120%

**Q.** Which results are given for `CC(C)(C)c1cc(OC[Si](C)(c2ccccc2)c2ccccc2)ccc1O` [MDL 107,917, 2-t-butyl-4-[(diphenylmethylsilyl)methyloxy]phenol]?
**A.** response vs control in vivo at 0.4 % [5]: 68%; response vs control in vivo at 0.4 % ([6]; read-out: HDL cholesterol, percent of control): 86%; response vs control in vivo at 0.4 % ([6]; read-out: LDL cholesterol, percent of control): 165%; response vs control in vivo at 0.4 % ([6]; read-out: TRIG (triglycerides), percent of control): 129%; response vs control in vivo at 0.4 % ([6]; read-out: chol tot. (total cholesterol), percent of control): 151%; Liver Parent = parent compound concentration ([7]; rabbit liver): 0 µg/g; Serum Parent = parent compound concentration ([7]; rabbit serum): 0 µg/mL; food (grams eaten per day per rabbit), percent of control [8]: 100%; body wt., percent of control ([8]; rabbit): 99%; lw/bw (liver weight/body weight), percent of control ([8]; rabbit): 106%
